Measured values from publication PMC4660440 (Scientific Reports, 2015).

What was measured:
Type in all cases: cell-based
A549 = test: MTT cytotoxicity assay, A549; conditions: Homo sapiens, A549, drug exposure 48 h, mean ± SD (n = 3), read-out: Cytotoxic activity (IC50) A549
Description: (§1) HeLa, BGC823, A-549, MCF-7 and HT-7702 cell lines were obtained from the ATCC. […] Tumor cells (3500–13,000) were seeded into 96-well microtest plates in 100 μL of culture medium per well, incubated for 48 h in the presence or absence of test compounds (8 different concentrations ranging from 100 to 0.01 μg/mL). For quantitative estimation of cytotoxicity, the (MTT) method was used, essentially performed as described previously. Briefly, cells were washed twice with PBS, fixed for 15 min in 1% glutaraldehyde solution, rinsed twice in PBS, and stained in 0.5% MTT solution for 4 h at 37 °C. […] The initial seeding densities varied among the cell lines to ensure a final absorbance reading in control (untreated) cultures within the range of 0.6–0.8 A492 units. Drug exposure was carried out for 2 days, and the IC50 value, i.e., the drug concentration that decreased the absorbance by 50%, was extrapolated from dose-response data. Each test was performed in triplicate, and the absorbance readings between the triplicates varied by no more than 10%.

[1] = MTT cytotoxicity assay, normal hepatic cell line HL-7702; conditions: HL-7702 normal hepatic cells, human normal hepatic immortal cell line, drug exposure 48 h, mean ± SD (n = 3), read-out: Cytotoxic activity (IC50) HL-7702
Description: as §1

HeLa = test: MTT cytotoxicity assay, HeLa; conditions: Homo sapiens, HeLa, 48 h, drug exposure 48 h, mean ± SD (n = 3), read-out: Cytotoxic activity (IC50) HeLa
Description: as §1

MCF-7 = test: MTT cytotoxicity assay, MCF-7; conditions: Homo sapiens, MCF7, drug exposure 48 h, mean ± SD (n = 3), read-out: Cytotoxic activity (IC50) MCF-7
Description: as §1

BGC-823 = test: MTT cytotoxicity assay, BGC-823; conditions: Homo sapiens, BGC-823, drug exposure 48 h, mean ± SD (n = 3), read-out: Cytotoxic activity (IC50) BGC-823
Description: as §1

SMILES	IC50 (A549)	IC50 at 48 h [1]	IC50 (HeLa)	IC50 (MCF-7)	IC50 (BGC-823)
COc1cc([C@@H]2c3cc4c(cc3[C@@H](Nc3ccccc3Br)[C@H]3COC(=O)[C@H]23)OCO4)cc(OC)c1O [2′]	44.9 ± 3.12 µM	47.4 ± 3.14 µM	31.3 ± 1.43 µM	27.6 ± 0.91 µM	28.7 ± 1.04 µM
COc1cc([C@@H]2c3cc4c(cc3[C@@H](Nc3ccccc3)[C@H]3COC(=O)[C@H]23)OCO4)cc(OC)c1OC [Compound 1]	43.2 ± 3.32 µM	41.8 ± 2.47 µM	35.1 ± 1.03 µM	–	86.5 ± 4.21 µM
COc1cc([C@@H]2c3cc4c(cc3[C@@H](Nc3ccccc3)[C@H]3COC(=O)[C@H]23)OCO4)cc(OC)c1O [Compound 1′]	42.5 ± 5.11 µM	53.4 ± 4.34 µM	44.34 ± 0.34 µM	26.8 ± 0.67 µM	68.2 ± 4.13 µM
COc1cc([C@@H]2c3cc4c(cc3[C@@H](Nc3ccccc3Br)[C@H]3COC(=O)[C@H]23)OCO4)cc(OC)c1OC [Compound 2]	35.1 ± 2.37 µM	65.9 ± 2.37 µM	26.6 ± 2.03 µM	29.1 ± 1.78 µM	17.9 ± 0.98 µM
COc1cc([C@@H]2c3cc4c(cc3[C@@H](Nc3ccccc3Cl)[C@H]3COC(=O)[C@H]23)OCO4)cc(OC)c1OC [Compound 3]	27.2 ± 1.95 µM	13.2 ± 1.35 µM	26.7 ± 1.32 µM	21.1 ± 0.76 µM	18.1 ± 1.03 µM
COc1cc([C@@H]2c3cc4c(cc3[C@@H](Nc3ccccc3Cl)[C@H]3COC(=O)[C@H]23)OCO4)cc(OC)c1O [Compound 3′]	20.5 ± 0.42 µM	2.42 ± 0.71 µM	23.4 ± 1.4 µM	37.5 ± 1.03 µM	23.1 ± 1.87 µM
COc1cc([C@@H]2c3cc4c(cc3[C@@H](Nc3ccccc3F)[C@H]3COC(=O)[C@H]23)OCO4)cc(OC)c1OC [Compound 4]	16.8 ± 1.22 µM	16 ± 0.66 µM	22.1 ± 0.81 µM	16.1 ± 0.17 µM	22.7 ± 0.97 µM
COc1cc([C@@H]2c3cc4c(cc3[C@@H](Nc3ccccc3F)[C@H]3COC(=O)[C@H]23)OCO4)cc(OC)c1O [Compound 4′]	15.6 ± 1.75 µM	31.5 ± 2.81 µM	20.7 ± 0.75 µM	15.3 ± 0.42 µM	17.8 ± 0.34 µM
COc1cc([C@@H]2c3cc4c(cc3[C@@H](Nc3cccc(Br)c3)[C@H]3COC(=O)[C@H]23)OCO4)cc(OC)c1OC [Compound 5]	13.4 ± 2.54 µM	13.58 ± 0.11 µM	9.01 ± 0.11 µM	8.35 ± 0.42 µM	11.2 ± 3.61 µM
COc1cc([C@@H]2c3cc4c(cc3[C@@H](Nc3cccc(Br)c3)[C@H]3COC(=O)[C@H]23)OCO4)cc(OC)c1O [Compound 5′]	11.8 ± 0.74 µM	44.3 ± 1.78 µM	8.83 ± 0.12 µM	10.7 ± 1.48 µM	13.6 ± 0.16 µM
COc1cc([C@@H]2c3cc4c(cc3[C@@H](Nc3cccc(Cl)c3)[C@H]3COC(=O)[C@H]23)OCO4)cc(OC)c1OC [Compound 6]	7.23 ± 0.95 µM	35.27 ± 0.21 µM	5.43 ± 0.27 µM	6.57 ± 0.15 µM	9.32 ± 1.79 µM
COc1cc([C@@H]2c3cc4c(cc3[C@@H](Nc3cccc(Cl)c3)[C@H]3COC(=O)[C@H]23)OCO4)cc(OC)c1O [Compound 6′]	5.03 ± 1.07 µM	32.5 ± 0.86 µM	5.13 ± 0.05 µM	4.75 ± 0.37 µM	6.59 ± 0.21 µM
COc1cc([C@@H]2c3cc4c(cc3[C@@H](Nc3cccc(F)c3)[C@H]3COC(=O)[C@H]23)OCO4)cc(OC)c1OC [Compound 7]	6.8 ± 0.31 µM	29.9 ± 0.74 µM	3.12 ± 0.18 µM	4.05 ± 0.26 µM	5.21 ± 1.32 µM
COc1cc([C@@H]2c3cc4c(cc3[C@@H](Nc3cccc(F)c3)[C@H]3COC(=O)[C@H]23)OCO4)cc(OC)c1O [Compound 7′]	3.88 ± 0.33 µM	21.4 ± 1.57 µM	5.07 ± 0.31 µM	3.14 ± 0.15 µM	2.24 ± 0.06 µM
COc1cc([C@@H]2c3cc4c(cc3[C@@H](Nc3ccc(Br)cc3)[C@H]3COC(=O)[C@H]23)OCO4)cc(OC)c1OC [Compound 8]	52.9 ± 4.36 µM	27.1 ± 2.31 µM	42.1 ± 0.91 µM	19.7 ± 0.62 µM	46.2 ± 2.97 µM
COc1cc([C@@H]2c3cc4c(cc3[C@@H](Nc3ccc(Br)cc3)[C@H]3COC(=O)[C@H]23)OCO4)cc(OC)c1O [Compound 8′]	62.4 ± 3.66 µM	32.1 ± 0.96 µM	21.07 ± 0.17 µM	28.9 ± 1.06 µM	62.1 ± 4.39 µM
COc1cc([C@@H]2c3cc4c(cc3[C@@H](Nc3ccc(Cl)cc3)[C@H]3COC(=O)[C@H]23)OCO4)cc(OC)c1OC [Compound 9]	22.8 ± 1.08 µM	41.6 ± 3.11 µM	21.32 ± 0.11 µM	19.3 ± 1.43 µM	23.1 ± 1.74 µM
COc1cc([C@@H]2c3cc4c(cc3[C@@H](Nc3ccc(Cl)cc3)[C@H]3COC(=O)[C@H]23)OCO4)cc(OC)c1O [Compound 9′]	29.8 ± 0.75 µM	15.8 ± 1.17 µM	16.7 ± 1.31 µM	37.68 ± 0.16 µM	14.3 ± 1.14 µM
COc1cc([C@@H]2c3cc4c(cc3[C@@H](Nc3ccc(F)cc3)[C@H]3COC(=O)[C@H]23)OCO4)cc(OC)c1OC [Compound 10]	12.1 ± 0.63 µM	27.4 ± 1.98 µM	17.51 ± 0.04 µM	7.06 ± 0.37 µM	17 ± 0.18 µM
COc1cc([C@@H]2c3cc4c(cc3[C@@H](Nc3ccc(F)cc3)[C@H]3COC(=O)[C@H]23)OCO4)cc(OC)c1O [Compound 10′]	17.7 ± 0.47 µM	29.6 ± 2.33 µM	16.32 ± 0.09 µM	9.84 ± 0.73 µM	28.61 ± 0.06 µM
COc1ccccc1N[C@@H]1c2cc3c(cc2[C@@H](c2cc(OC)c(OC)c(OC)c2)[C@H]2C(=O)OC[C@@H]21)OCO3 [Compound 11]	14.1 ± 0.37 µM	37.5 ± 1.75 µM	13.4 ± 1.31 µM	10.2 ± 0.61 µM	14.2 ± 0.98 µM
COc1ccccc1N[C@@H]1c2cc3c(cc2[C@@H](c2cc(OC)c(O)c(OC)c2)[C@H]2C(=O)OC[C@@H]21)OCO3 [Compound 11′]	8.68 ± 0.29 µM	63.57 ± 0.19 µM	13.5 ± 1.38 µM	9.42 ± 0.24 µM	9.68 ± 0.17 µM
COc1cccc(N[C@@H]2c3cc4c(cc3[C@@H](c3cc(OC)c(OC)c(OC)c3)[C@H]3C(=O)OC[C@@H]32)OCO4)c1 [Compound 13]	12.4 ± 0.38 µM	38.8 ± 2.37 µM	11.6 ± 0.83 µM	13.8 ± 3.98 µM	12.7 ± 1.06 µM
COc1cccc(N[C@@H]2c3cc4c(cc3[C@@H](c3cc(OC)c(O)c(OC)c3)[C@H]3C(=O)OC[C@@H]32)OCO4)c1 [Compound 13′]	7.27 ± 2.38 µM	39.8 ± 2.73 µM	12.3 ± 0.74 µM	11 ± 1.26 µM	13.8 ± 1.42 µM
COc1ccc(Br)cc1N[C@@H]1c2cc3c(cc2[C@@H](c2cc(OC)c(OC)c(OC)c2)[C@H]2C(=O)OC[C@@H]21)OCO3 [Compound 14]	6.85 ± 0.75 µM	87.6 ± 4.13 µM	7.07 ± 0.63 µM	4.97 ± 0.03 µM	6.26 ± 0.36 µM
COc1ccc(Br)cc1N[C@@H]1c2cc3c(cc2[C@@H](c2cc(OC)c(O)c(OC)c2)[C@H]2C(=O)OC[C@@H]21)OCO3 [Compound 14′]	54.3 ± 4.49 µM	87.6 ± 5.04 µM	6.47 ± 0.17 µM	4.21 ± 0.25 µM	22.2 ± 2.02 µM
